Test results as given in patent US20230257347A1 (priority 2020, published 2023).
pEC50, pIC50: −log10 of the molar value. Structures can show the parent of a compound that is named as a salt. Where two headings read alike, the source gives them in different places.

Experiments:
[1] = target: T1, Dopamine transporter (DAT) (Homo sapiens, UniProt Q01959); experiment: Monoamine transporter uptake assay (fluorescent substrate), DAT; format: cell-based
T1 construct: expressed in transfected cells

[2] = target: T2, Adrenergic Receptor α2A (ADRA2A) (Homo sapiens, UniProt P08913); experiment: cAMP assay, ADRA2A; format: cell-based
T2 sequence (P08913 1-465): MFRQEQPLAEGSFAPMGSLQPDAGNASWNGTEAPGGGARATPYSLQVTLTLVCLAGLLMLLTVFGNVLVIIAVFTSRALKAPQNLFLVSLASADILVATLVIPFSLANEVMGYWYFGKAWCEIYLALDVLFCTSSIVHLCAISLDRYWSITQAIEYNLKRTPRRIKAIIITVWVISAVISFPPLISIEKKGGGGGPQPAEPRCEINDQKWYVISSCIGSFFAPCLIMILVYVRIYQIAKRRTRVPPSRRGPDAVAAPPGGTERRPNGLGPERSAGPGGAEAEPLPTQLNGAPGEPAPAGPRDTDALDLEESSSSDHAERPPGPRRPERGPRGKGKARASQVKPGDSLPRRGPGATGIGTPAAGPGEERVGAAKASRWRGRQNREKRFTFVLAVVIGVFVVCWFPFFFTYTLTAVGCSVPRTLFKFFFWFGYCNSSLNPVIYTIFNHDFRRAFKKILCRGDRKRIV

Cyclooxygenase 2 (COX2) = target: T3, Cyclooxygenase 2 (COX2) (Homo sapiens, UniProt P35354); experiment: Enzymatic assay, COX2; format: biochemical
T3 construct: purchased BPS Bioscience
T3 sequence (P35354 18-604): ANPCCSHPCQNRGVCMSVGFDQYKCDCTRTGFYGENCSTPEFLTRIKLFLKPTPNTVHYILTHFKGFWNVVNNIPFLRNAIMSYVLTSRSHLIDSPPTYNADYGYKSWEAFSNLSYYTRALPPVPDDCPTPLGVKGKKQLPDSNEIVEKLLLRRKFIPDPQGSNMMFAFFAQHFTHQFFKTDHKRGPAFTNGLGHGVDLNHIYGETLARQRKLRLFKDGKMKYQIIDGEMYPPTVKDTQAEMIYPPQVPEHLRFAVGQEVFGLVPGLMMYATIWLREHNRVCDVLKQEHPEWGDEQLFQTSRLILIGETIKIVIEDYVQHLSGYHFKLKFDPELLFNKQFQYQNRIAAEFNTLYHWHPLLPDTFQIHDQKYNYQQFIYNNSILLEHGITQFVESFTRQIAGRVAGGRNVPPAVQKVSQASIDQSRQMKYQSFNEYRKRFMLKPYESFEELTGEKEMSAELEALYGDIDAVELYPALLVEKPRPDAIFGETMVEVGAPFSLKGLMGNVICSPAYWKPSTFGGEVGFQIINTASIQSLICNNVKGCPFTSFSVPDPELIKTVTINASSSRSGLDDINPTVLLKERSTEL

[3] = target: T4, Nicotinic acetylcholine Receptor α4 β2 (nAChR(a4/b2)) (Homo sapiens, UniProt P17787+P43681); experiment: cell-based
T4 construct: expressed in transfected cells

[4] = target: NAV1.5 (tetrodotoxin-resistant voltage-gated sodium channel) (Homo sapiens, UniProt Q14524); experiment: cell-based
[5] = target: T5, Endothelin Receptor Type A (EDNRA) (Homo sapiens, UniProt P25101); experiment: Calcium flux assay, EDNRA; format: cell-based
T5 sequence (P25101 21-427): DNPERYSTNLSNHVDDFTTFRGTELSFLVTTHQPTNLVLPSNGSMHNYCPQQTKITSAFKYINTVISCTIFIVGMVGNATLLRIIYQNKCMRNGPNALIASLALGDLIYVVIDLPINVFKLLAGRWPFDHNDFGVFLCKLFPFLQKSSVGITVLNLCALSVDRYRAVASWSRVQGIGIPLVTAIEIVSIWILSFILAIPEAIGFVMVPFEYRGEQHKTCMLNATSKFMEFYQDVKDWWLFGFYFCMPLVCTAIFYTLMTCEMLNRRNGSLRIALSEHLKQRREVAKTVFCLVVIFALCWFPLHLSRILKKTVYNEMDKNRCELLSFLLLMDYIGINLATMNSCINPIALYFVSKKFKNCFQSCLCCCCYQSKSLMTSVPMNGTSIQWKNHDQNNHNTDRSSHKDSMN

[6] = target: T6, N-methyl-D-aspartate (NMDA) Glutamate Receptor 1A/2B (NMDAR (1A/2B)) (Homo sapiens, UniProt Q05586+Q13224); experiment: Ion channel assay, NMDAR (1A/2B); format: cell-based
T6 construct: expressed in transfected cells

[7] = target: T7, Voltage-gated L-type calcium channel (CAV1.2) (Homo sapiens, UniProt Q13936); experiment: Ion channel assay, CAV1.2; format: cell-based
T7 construct: expressed in transfected cells

[8] = target: Adrenergic Receptor β2 (ADRB2) (Homo sapiens, UniProt P07550); experiment: cAMP assay, ADRB2; format: cell-based
[9] = target: T8, Lymphocyte Cell-Specific Protein-Tyrosine Kinase (LCK) (Homo sapiens, UniProt P06239); experiment: KINOMEscan binding assay, LCK
T8 construct: made in house; host or cells: E. coli BL21-derived host (T7 phage) or HEK-293

[10] = target: T9, Monoamine oxidase type A (MAOA) (Homo sapiens, UniProt P21397); experiment: Enzymatic assay, MAOA (kynuramine substrate); format: biochemical
T9 construct: purchased Sigma
T9 sequence (P21397 1-527): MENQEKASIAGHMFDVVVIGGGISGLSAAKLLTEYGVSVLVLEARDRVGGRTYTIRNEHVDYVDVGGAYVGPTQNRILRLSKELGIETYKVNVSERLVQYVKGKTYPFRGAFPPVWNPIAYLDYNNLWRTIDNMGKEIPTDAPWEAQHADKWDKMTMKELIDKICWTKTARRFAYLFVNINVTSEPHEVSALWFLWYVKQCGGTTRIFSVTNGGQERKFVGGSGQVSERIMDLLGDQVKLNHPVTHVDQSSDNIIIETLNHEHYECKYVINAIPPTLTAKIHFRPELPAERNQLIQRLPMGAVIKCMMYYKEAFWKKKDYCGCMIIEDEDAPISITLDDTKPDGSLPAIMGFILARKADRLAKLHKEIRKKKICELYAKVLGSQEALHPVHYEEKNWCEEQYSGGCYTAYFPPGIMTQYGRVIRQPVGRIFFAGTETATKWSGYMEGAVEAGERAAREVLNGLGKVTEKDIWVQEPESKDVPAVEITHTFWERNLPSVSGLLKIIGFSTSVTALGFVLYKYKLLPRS

hERG = target: T10, hERG (Homo sapiens, UniProt Q12809); experiment: Ion channel assay, hERG; format: cell-based
T10 construct: expressed in transfected cells

[11] = read-out: MAOA IC50, Table 10, Source: Original data

T10 sequence (Q12809 whole entry): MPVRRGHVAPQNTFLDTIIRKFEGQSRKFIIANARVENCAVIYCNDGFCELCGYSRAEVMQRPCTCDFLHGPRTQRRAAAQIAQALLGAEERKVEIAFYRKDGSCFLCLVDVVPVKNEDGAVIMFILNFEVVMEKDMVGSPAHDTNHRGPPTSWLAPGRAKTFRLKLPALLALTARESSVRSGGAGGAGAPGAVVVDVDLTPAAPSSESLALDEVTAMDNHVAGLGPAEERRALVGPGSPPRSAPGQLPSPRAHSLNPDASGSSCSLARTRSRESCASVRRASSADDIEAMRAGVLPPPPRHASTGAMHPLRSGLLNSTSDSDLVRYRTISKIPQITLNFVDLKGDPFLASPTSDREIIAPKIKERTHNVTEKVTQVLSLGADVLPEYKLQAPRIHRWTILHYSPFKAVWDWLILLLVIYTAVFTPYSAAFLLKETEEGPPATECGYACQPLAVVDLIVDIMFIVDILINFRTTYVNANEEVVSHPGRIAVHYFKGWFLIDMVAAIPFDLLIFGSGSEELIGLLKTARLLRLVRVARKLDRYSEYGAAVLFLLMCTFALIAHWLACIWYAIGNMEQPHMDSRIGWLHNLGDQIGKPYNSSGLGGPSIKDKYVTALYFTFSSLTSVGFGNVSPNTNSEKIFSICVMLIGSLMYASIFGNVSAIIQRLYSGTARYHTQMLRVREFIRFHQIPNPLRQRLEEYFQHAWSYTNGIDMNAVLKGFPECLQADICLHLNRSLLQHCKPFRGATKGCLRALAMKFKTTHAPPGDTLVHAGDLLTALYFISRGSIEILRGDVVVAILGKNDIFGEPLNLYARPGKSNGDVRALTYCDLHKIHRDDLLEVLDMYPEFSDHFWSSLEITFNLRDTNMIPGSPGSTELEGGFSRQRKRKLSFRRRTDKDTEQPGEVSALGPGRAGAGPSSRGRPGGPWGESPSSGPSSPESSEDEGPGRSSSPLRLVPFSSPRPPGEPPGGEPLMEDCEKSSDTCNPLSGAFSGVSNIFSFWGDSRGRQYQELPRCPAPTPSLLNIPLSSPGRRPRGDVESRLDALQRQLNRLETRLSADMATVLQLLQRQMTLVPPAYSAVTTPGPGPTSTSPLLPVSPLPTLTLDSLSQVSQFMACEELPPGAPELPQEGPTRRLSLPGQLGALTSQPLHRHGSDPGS
T4 sequence (P43681 29-627 limits assumed): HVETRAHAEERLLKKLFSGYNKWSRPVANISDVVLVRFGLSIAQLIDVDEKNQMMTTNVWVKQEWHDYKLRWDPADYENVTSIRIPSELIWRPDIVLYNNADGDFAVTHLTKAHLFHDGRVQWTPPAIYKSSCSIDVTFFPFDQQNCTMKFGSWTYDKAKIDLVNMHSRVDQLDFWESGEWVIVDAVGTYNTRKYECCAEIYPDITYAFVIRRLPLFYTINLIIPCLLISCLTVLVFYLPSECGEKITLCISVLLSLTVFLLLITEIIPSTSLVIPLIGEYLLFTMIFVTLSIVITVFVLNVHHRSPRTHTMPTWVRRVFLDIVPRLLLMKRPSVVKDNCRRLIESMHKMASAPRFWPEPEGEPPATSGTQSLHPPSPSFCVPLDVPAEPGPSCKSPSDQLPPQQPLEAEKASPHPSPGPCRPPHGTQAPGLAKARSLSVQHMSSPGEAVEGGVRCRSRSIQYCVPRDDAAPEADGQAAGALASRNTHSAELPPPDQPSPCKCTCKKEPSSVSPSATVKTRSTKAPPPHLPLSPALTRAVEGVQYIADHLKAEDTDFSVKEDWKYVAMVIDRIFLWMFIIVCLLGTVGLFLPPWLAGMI
T4 sequence (P17787 26-502): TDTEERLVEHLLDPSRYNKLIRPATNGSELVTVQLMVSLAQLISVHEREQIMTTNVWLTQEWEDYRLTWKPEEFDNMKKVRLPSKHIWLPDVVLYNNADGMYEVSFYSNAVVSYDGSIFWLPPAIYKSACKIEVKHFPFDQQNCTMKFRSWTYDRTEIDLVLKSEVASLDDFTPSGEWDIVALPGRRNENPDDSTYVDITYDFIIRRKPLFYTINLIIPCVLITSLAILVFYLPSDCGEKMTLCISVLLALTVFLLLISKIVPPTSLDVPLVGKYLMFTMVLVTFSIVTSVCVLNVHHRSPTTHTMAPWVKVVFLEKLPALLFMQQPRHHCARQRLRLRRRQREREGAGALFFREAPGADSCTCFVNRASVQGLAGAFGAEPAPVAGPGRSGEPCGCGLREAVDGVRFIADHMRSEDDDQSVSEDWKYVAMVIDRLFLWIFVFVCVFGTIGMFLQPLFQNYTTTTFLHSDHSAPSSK
T7 sequence (Q13936 whole entry, looked up): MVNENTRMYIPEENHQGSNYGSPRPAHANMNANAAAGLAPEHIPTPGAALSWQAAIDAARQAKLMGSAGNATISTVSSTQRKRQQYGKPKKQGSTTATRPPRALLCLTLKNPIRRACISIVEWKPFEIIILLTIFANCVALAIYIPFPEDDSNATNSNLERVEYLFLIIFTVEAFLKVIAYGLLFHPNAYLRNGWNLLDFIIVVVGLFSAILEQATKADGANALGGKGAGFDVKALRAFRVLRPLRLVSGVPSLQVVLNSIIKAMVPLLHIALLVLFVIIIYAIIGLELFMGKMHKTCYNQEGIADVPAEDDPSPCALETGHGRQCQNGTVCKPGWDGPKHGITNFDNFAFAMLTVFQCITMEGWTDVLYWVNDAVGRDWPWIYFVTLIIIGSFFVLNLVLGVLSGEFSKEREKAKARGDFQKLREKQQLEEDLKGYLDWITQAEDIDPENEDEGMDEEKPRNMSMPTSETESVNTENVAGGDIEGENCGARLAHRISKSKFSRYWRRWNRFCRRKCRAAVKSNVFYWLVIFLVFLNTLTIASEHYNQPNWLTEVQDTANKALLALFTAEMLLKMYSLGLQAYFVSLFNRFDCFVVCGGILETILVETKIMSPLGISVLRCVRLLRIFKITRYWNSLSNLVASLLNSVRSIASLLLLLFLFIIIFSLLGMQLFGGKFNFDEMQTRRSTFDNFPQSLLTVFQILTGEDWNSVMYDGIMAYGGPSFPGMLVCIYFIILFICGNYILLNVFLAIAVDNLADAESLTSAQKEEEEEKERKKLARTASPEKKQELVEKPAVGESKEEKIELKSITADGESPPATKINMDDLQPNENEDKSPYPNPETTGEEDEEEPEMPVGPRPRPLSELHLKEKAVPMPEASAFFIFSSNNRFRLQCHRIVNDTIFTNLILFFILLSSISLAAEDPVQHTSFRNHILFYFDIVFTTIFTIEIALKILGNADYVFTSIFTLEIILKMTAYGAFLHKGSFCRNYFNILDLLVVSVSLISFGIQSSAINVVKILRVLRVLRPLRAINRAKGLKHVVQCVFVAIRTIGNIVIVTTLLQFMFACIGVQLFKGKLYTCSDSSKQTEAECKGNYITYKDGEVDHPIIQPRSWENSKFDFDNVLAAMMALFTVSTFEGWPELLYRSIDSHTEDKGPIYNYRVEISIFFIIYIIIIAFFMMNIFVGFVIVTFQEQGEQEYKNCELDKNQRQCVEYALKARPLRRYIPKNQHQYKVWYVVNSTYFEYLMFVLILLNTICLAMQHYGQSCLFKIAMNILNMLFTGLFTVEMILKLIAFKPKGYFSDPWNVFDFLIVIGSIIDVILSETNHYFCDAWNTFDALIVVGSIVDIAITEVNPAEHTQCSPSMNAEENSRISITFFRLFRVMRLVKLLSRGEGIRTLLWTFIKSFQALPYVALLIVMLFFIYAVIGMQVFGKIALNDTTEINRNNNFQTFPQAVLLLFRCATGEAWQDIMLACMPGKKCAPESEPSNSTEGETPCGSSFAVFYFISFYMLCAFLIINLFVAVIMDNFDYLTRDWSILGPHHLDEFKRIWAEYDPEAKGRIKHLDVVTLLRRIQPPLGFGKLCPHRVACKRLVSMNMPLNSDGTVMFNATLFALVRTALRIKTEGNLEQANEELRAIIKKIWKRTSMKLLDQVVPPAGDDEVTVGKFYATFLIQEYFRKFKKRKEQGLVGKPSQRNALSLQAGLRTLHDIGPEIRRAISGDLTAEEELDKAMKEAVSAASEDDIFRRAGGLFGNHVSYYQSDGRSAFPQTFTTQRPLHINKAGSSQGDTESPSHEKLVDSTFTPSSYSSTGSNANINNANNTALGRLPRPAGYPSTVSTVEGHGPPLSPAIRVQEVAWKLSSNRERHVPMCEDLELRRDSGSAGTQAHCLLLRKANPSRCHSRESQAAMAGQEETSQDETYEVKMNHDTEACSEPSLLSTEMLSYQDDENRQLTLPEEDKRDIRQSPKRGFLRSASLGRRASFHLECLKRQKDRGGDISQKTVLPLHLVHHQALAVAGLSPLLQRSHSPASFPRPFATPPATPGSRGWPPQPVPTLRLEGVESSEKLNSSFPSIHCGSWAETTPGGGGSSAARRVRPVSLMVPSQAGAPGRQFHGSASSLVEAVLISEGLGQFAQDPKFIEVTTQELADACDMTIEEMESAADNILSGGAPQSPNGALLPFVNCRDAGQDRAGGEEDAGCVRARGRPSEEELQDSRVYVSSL
Chain of Adrenergic Receptor β2 (ADRB2) (P07550 whole entry): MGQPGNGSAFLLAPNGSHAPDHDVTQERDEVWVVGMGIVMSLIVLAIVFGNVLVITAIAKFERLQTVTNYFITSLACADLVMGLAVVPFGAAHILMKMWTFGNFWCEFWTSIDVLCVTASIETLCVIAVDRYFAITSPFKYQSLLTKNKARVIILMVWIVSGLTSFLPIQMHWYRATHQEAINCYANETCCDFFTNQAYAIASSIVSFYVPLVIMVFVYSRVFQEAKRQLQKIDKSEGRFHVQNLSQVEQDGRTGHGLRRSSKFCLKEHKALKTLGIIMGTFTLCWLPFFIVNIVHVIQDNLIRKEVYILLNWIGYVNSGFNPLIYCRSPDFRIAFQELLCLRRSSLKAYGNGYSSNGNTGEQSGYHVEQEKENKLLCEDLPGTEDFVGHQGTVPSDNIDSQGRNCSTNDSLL

Compound	pIC50 [1]	pEC50 [2]	pIC50 [2]	pIC50 (Cyclooxygenase 2 (COX2))	pEC50 [3]	pIC50 [3]	pIC50 [4]	pEC50 [5]	pIC50 [5]	pEC50 [6]	pIC50 [6]	pIC50 [7]	pEC50 [8]	pIC50 [8]	pIC50 [9]	pIC50 [10]	pIC50 [10, 11]	pIC50 (hERG)	MAOA inhibition (MAOI or not, in words) ([10]; original data)
CNC(C)C(=O)c1c[nH]c2ccc(Br)cc12 (stereo not shown) [BK-5Br-NM-AMT, 1-(5-bromo-1H-indol-3-yl)-2-(methylamino) propan-1-one hydrochloride]	5.37	< 5.00	< 5.00	< 5.00	< 5.00	< 5.00	< 5.00	< 5.00	< 5.00	< 5.00	< 5.00	< 5.00	< 5.00	5.26	< 5.00	< 5.00	< 5.00	< 5.00	
CNC(C)C(=O)c1c[nH]c2ccc(F)cc12 (stereo not shown) [BK-5F-NM-AMT, 1-(5-Fluoro-1H-indol-3-yl)-2-(methylamino) propan-1-one hydrochloride]	< 5.00	< 5.00	< 5.00	< 5.00	< 5.00	< 5.00	< 5.00	< 5.00	< 5.00	< 5.00	< 5.00	< 5.00	< 5.00	< 5.00	< 5.00	< 5.00	< 5.00	< 5.00	is not an MAOI
CNC(C)C(=O)c1c[nH]c2ccc(Cl)cc12 (stereo not shown) [BK-5Cl-NM-AMT, 1-(5-chloro-1H-indol-3-yl)-2-(methylamino) propan-1-one hydrochloride]	5.22	< 5.00	< 5.00	< 5.00	< 5.00	< 5.00	< 5.00	< 5.00	< 5.00	< 5.00	< 5.00	< 5.00	< 5.00	5.06	< 5.00	< 5.00	< 5.00	< 5.00	
